Data as given in paper PMC11852496, “A Modular Customizable Ligand-Conjugate (LC) System Targeting Ghrelin O-Acyltransferase” (Biomolecules, 2025).
“And” between values parts separate entries of the source, which are not always exact repeats. Equal entries are not always repeated. Where two headings read alike, the source gives them in different places. Non-standard residues stand in square brackets, D forms with d. Residues, ends and D or L forms follow the SMILES beside them. *: point of attachment. X4 = CN1C(=C/C=C/C=C/C2=[N+](CCCCCC(=O)NCCCn3cc(COC[C@H]4CC[C@H](CN5C(=O)CC(*)C5=O)CC4)nn3)c3ccc(S(=O)(=O)[O-])cc3C2(C)C)C(C)(C)c2cc(S(=O)(=O)O)ccc21; X2 = N=c1ccc2c(-c3ccc(C(=O)NCCCn4cc(COC[C@H]5CC[C@H](CN6C(=O)CC(*)C6=O)CC5)nn4)cc3C(=O)O)c3ccc(N)c(S(=O)(=O)O)c3oc-2c1S(=O)(=O)O; X5 = COc1cc(/N=N/c2ccc(C)cc2[N+](=O)[O-])c(C)cc1/N=N/c1ccc(N(C)CCCC(=O)NCCn2cc(COC[C@H]3CC[C@H](CN4C(=O)CC(*)C4=O)CC3)nn2)cc1; X3 = O=C(NCCCn1cc(COC[C@H]2CC[C@H](CN3C(=O)CC(*)C3=O)CC2)nn1)c1ccc2c(c1)C(=O)OC21c2ccc(O)cc2Oc2cc(O)ccc21; X7 = C#CCOC[C@H]1CC[C@H](CN2C(=O)CC(*)C2=O)CC1; 1Nal = N[CH](Cc1cccc2ccccc12)C(=O)O; X1 = O=C1NC2CSC(CCCCC(=O)*)C2N1; PEG3 = NCCOCCOCCOCCC(=O)O; Dap = NC[CH](N)C(=O)O

Target: T1, hGOAT (human ghrelin O-acyltransferase) (Homo sapiens, UniProt Q96T53)
T1 construct: made in house; host or cells: Sf9 insect cells (membrane/microsomal fraction)
T1 sequence (Q96T53 1-435): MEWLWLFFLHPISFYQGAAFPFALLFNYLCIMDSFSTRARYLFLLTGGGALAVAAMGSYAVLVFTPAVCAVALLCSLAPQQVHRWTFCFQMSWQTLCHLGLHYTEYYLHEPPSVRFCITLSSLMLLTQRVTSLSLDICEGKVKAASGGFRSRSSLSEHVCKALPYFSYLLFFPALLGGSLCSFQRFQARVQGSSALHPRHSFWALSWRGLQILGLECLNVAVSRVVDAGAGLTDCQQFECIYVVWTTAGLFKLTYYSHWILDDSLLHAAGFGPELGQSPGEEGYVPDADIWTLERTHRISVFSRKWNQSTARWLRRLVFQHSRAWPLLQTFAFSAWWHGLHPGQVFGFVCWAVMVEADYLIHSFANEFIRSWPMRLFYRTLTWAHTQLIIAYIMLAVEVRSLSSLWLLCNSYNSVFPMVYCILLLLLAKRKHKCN
Test: GOAT ghrelin acylation (octanoylation) inhibition assay, membrane fraction of Sf9 cells expressing hGOAT, HPLC readout
Assay type: biochemical
Details: for IC50: average of three independent trials; for IC50 relative to parent ligand 5: fold change relative to ligand 5; for change in binding potency with PEG3 linker B compared to linker A: primed ligand (linker B) relative to unprimed ligand (linker A)
Protocol: The microsomal fraction containing hGOAT for the ligand-binding studies by IC50 determination was prepared according to published protocols. For the GOAT inhibition assay, serial dilutions of 0, 0.15, 0.5, 1, 5, 15, and 50 µM concentrations were prepared in 50% acetonitrile for each ligand used. The membrane fractions from the Sf9 cells expressing GOAT were first thawed on ice then passed through an 18-gauge needle 10 times to homogenize them. The assays were performed with approximately 30 µg of the membrane protein as determined through a Bradford assay. The standard reaction conditions contained 50 mM HEPES pH 7.0, 1 µM MAFP, 30 µg of membrane protein, and ultrapure water. The ligands were added to the reaction mixtures and incubated for 30 min at room temperature protected from light prior to the reaction initiation. The reactions were initiated by octanoyl CoA (300 µM final concentration) and GSSFLCAcdan (0.3 µM final concentration) in a total reaction volume of 50 µL. […] The reactions were stopped with 50 µL of 20% acetic acid in isopropanol. The excess membrane fraction was precipitated with 16.7 µL of 40% trichloroacetic acid (TCA) followed by a 1000× g centrifugation for 2 min. The supernatant was then analyzed via reverse-phase HPLC in 100 µL samples as previously described. The inhibition trials were run in triplicate, with the reported IC50 values representing the average of at least three trials. The IC50 values for all LCs are reported in Supplemental Table S2.
The assays were analyzed on reverse-phase HPLC (Zorbax Eclipse XDB column, 4.6 × 150 mm) using a solvent gradient from […] in aqueous 0.05% TFA over 5 min at a flow rate of 1 mL/min, followed by a gradient of […] in 0.05% TFA over 1 min, 100% acetonitrile for 5 min, and a gradient of 100% acetonitrile to 30% acetonitrile in 0.05% TFA for 5 min. The total time for each run was 16 min. The peptides were detected by the attached acrylodan label with the UV absorbance at 360 nm and fluorescence (λex = 360 nm, λem = 485 nm). The octanoylated peptide typically eluted at around 7.5 min, with the unreacted peptide eluting at around 2.5 min. Chemstation for LC (Agilent Technologies) was used for peak integration.
The peak integrations were used to determine the percent conversion in the presence of either the inhibitor (ligand, LC) or the vehicle (50% acetonitrile). The percent activity was calculated using Equation (1):(1) % peptide octanoylationa=fluorescence of octanoylated peptide/total peptide fluorescence,
IC50 values were determined by fitting Equation (2) to the plot of % activity against inhibitor concentration:(2) % activity=% vehicle1−Inhibitor/Inhibitor+IC50
[formula] Scheme 1 The GOAT inhibition assay for determining ligand binding. The octanoylation of a fluorescently labeled ghrelin-mimetic peptide substrate is inhibited by LC binding, with GOAT octanoylation activity and inhibition determined as described in the Section 2.

[1] = ± one standard deviation, read-out: IC50 against hGOAT

Molecule | IC50 [1] | further results
CC(C)CC(NC(=O)C(Cc1cccc2ccccc12)NC(=O)C(CN)NC(=O)C(CO)NC(=O)CN)C(=O)NC(CO)C(=O)N1CCCC1C(=O)NC(C(=O)NCCOCCOCCOCCC(=O)NC(CS)C(N)=O)C(C)O (stereo not drawn) [Ligand 3] (H-GS[Dap][1Nal]LSPT[PEG3]C-NH2; configuration not given here) | 28.9 nM and 29 nM | –
C#CCOC[C@H]1CC[C@H](CN2C(=O)CC(SC[C@H](NC(=O)CCOCCOCCOCCNC(=O)[C@@H](NC(=O)[C@@H]3CCCN3C(=O)[C@H](CO)NC(=O)[C@H](CC(C)C)NC(=O)[C@H](Cc3cccc4ccccc34)NC(=O)[C@H](CN)NC(=O)[C@H](CO)NC(=O)CN)[C@@H](C)O)C(N)=O)C2=O)CC1 (stereo partly drawn) [Ligand 5, H-GS-Dap-Nal-1-LSPT-Mini-PEG3a-C-Linker] (H-GS[Dap][1Nal]LSPT[PEG3]C(X7)-NH2) | 13 ± 1 nM | –
CC(C)C[C@H](NC(=O)[C@H](Cc1cccc2ccccc12)NC(=O)[C@H](CN)NC(=O)[C@H](CO)NC(=O)CN)C(=O)N[C@@H](CO)C(=O)N1CCC[C@H]1C(=O)N[C@H](C(=O)NCCOCCOCCOCCC(=O)N[C@@H](CCn1cc(COC[C@H]2CC[C@H](CN3C(=O)C=CC3=O)CC2)nn1)C(N)=O)[C@@H](C)O [Ligand 6, H-GS-Dap-Nal-1-LSPT-Mini-PEG3a-AHA-Linker] | 1050 ± 79.5 nM | IC50 (apparent IC50, read-out: IC50 against hGOAT): > 1000 nM and 1000 nM
CC(C)C[C@H](NC(=O)[C@H](Cc1cccc2ccccc12)NC(=O)[C@H](CN)NC(=O)[C@H](CO)NC(=O)CN)C(=O)N[C@@H](CO)C(=O)N1CCC[C@H]1C(=O)N[C@H](C(=O)NCCOCCOCCOCCC(=O)N[C@@H](CSC1CC(=O)N(C[C@H]2CC[C@H](COCc3cn(CCCNC(=O)c4ccc(-c5c6ccc(=N)c(S(=O)(=O)O)c-6oc6c(S(=O)(=O)O)c(N)ccc56)c(C(=O)O)c4)nn3)CC2)C1=O)C(N)=O)[C@@H](C)O (stereo partly drawn) [Ligand 7, H-GS-Dap-Nal-1-LSPT-Mini-PEG3a-C-Linker-AF488azide] (H-GS[Dap][1Nal]LSPT[PEG3]C(X2)-NH2) | – | IC50 relative to parent ligand 5: six- to eight-fold higher
CC(C)C[C@H](NC(=O)[C@H](Cc1cccc2ccccc12)NC(=O)[C@H](CN)NC(=O)[C@H](CO)NC(=O)CN)C(=O)N[C@@H](CO)C(=O)N1CCC[C@H]1C(=O)N[C@H](C(=O)NCCOCCOCCOCCC(=O)N[C@@H](CSC1CC(=O)N(C[C@H]2CC[C@H](COCc3cn(CCCNC(=O)c4ccc5c(c4)C(=O)OC54c5ccc(O)cc5Oc5cc(O)ccc54)nn3)CC2)C1=O)C(N)=O)[C@@H](C)O (stereo partly drawn) [Ligand 8, H-GS-Dap-Nal-1-LSPT-Mini-PEG3-C-Linker-FAM5azide] (H-GS[Dap][1Nal]LSPT[PEG3]C(X3)-NH2) | 73.8 ± 4.8 nM | IC50 relative to parent ligand 5: six- to eight-fold higher
CC(C)C[C@H](NC(=O)[C@H](Cc1cccc2ccccc12)NC(=O)[C@H](CN)NC(=O)[C@H](CO)NC(=O)CN)C(=O)N[C@@H](CO)C(=O)N1CCC[C@H]1C(=O)N[C@H](C(=O)NCCOCCOCCOCCC(=O)N[C@@H](CSC1CC(=O)N(C[C@H]2CC[C@H](COCc3cn(CCCNC(=O)CCCCC[N+]4=C(/C=C/C=C/C=C5N(C)c6ccc(S(=O)(=O)O)cc6C5(C)C)C(C)(C)c5cc(S(=O)(=O)[O-])ccc54)nn3)CC2)C1=O)C(N)=O)[C@@H](C)O (stereo partly drawn) [Ligand 9, H-GS-Dap-Nal-1-LSPT-Mini-PEG3a-C-Linker-SulfoCy5azide] (H-GS[Dap][1Nal]LSPT[PEG3]C(X4)-NH2) | 84.4 ± 11.5 nM | IC50 relative to parent ligand 5: six- to eight-fold higher
COc1cc(/N=N/c2ccc(C)cc2[N+](=O)[O-])c(C)cc1/N=N/c1ccc(N(C)CCCC(=O)NCCn2cc(COC[C@H]3CC[C@H](CN4C(=O)CC(SC[C@H](NC(=O)CCOCCOCCOCCNC(=O)[C@@H](NC(=O)[C@@H]5CCCN5C(=O)[C@H](CO)NC(=O)[C@H](CC(C)C)NC(=O)[C@H](Cc5cccc6ccccc56)NC(=O)[C@H](CN)NC(=O)[C@H](CO)NC(=O)CN)[C@@H](C)O)C(N)=O)C4=O)CC3)nn2)cc1 (stereo partly drawn) [Ligand 12, H-GS-Dap-Nal-1-LSPT-Mini-PEG3-C-Linker-AzoDye1azide] (H-GS[Dap][1Nal]LSPT[PEG3]C(X5)-NH2) | 5.9 ± 1.7 nM | –
CC(C)CC(NC(=O)C(Cc1cccc2ccccc12)NC(=O)C(CN)NC(=O)C(CO)NC(=O)CN)C(=O)NC(CO)C(=O)N1CCCC1C(=O)NC(C(=O)NCCOCCOCCOCCC(=O)NC(CCCCNC(=O)CCCCC1SCC2NC(=O)NC21)C(N)=O)C(C)O (stereo not drawn) [Ligand 13] (H-GS[Dap][1Nal]LSPT[PEG3]K(X1)-NH2; configuration not given here) | 51.8 ± 5.7 nM | –
COc1cc2cc(c1Cl)N(C)C(=O)C[C@H](OC(=O)[C@H](C)N(C)C(=O)CCSC1CC(=O)N(C[C@H]3CC[C@H](COCc4cn(CC[C@H](NC(=O)CCOCCOCCOCCNC(=O)[C@@H](NC(=O)[C@@H]5CCCN5C(=O)[C@H](CO)NC(=O)[C@H](CC(C)C)NC(=O)[C@H](Cc5cccc6ccccc56)NC(=O)[C@H](CN)NC(=O)[C@H](CO)NC(=O)CN)[C@@H](C)O)C(N)=O)nn4)CC3)C1=O)[C@]1(C)O[C@H]1[C@H](C)[C@@H]1C[C@@](O)(NC(=O)O1)[C@H](OC)/C=C/C=C(\C)C2 (stereo partly drawn) [Ligand 14, H-GS-Dap-Nal-1-LSPT-Mini-PEG3a-AHA-Linker-Mertansine] | – | IC50 (IC50 against hGOAT, ± one standard deviation): 18.8 nM and ~20 nM
CC(C)C[C@H](NC(=O)[C@H](Cc1cccc2ccccc12)NC(=O)[C@H](CN)NC(=O)[C@H](CO)NC(=O)CN)C(=O)N[C@@H](CO)C(=O)N1CCC[C@H]1C(=O)N[C@H](C(=O)NCCOCCOCCOCCC(=O)N[C@@H](CSC1CC(=O)N(CCNC(=O)CCCCC[N+]2=C(/C=C/C=C/C=C3N(C)c4ccc(S(=O)(=O)O)cc4C3(C)C)C(C)(C)c3cc(S(=O)(=O)[O-])ccc32)C1=O)C(N)=O)[C@@H](C)O (stereo partly drawn) [Ligand 16] | 56.8 ± 8.6 nM | –
COc1cc(/N=N/c2ccc(C)cc2[N+](=O)[O-])c(C)cc1/N=N/c1ccc(N(C)CCCC(=O)NCc2cn(CC[C@H](NC(=O)CCOCCOCCOCCNC(=O)[C@@H](NC(=O)[C@@H]3CCCN3C(=O)[C@H](CO)NC(=O)[C@H](CC(C)C)NC(=O)[C@H](Cc3cccc4ccccc34)NC(=O)[C@H](CN)NC(=O)[C@H](CO)NC(=O)CN)[C@@H](C)O)C(N)=O)nn2)cc1 [Ligand 17, H-GS-Dap-Nal-1-LSPT-Mini-PEG3a-AHA-AzoDye1alkyne] | 3.9 ± 0.4 nM | –
H-GS-Dap-Nal-1-LSPT-Mini-PEG3a-C-Linker-TideQuencher2azide [Ligand 11] | 25.7 ± 6.2 nM | IC50 relative to parent ligand 5: approximately two-fold higher
H-GS-Dap-Nal-1-LSPT-Mini-PEG3b-C-NH2 [Ligand 3’] | – | change in binding potency with PEG3 linker B compared to linker A: approximately four-fold drop
H-GS-Dap-Nal-1-LSPT-Mini-PEG3b-C-SulfoCy5maleimide [Ligand 16’] | – | change in binding potency with PEG3 linker B compared to linker A: approximately two-fold increase
